Consider 1 molecule from ChEMBL document CHEMBL2331098, “Unprecedented polyketides from a marine sponge-associated Stachylidium sp” (J Nat Prod, 2013).

Calls of active or inactive are those of the source. The calls are words filed in the database; no cut-off is given here.

The subject of test [1] is Mycobacterium tuberculosis. The experiment in a line: Antimicrobial activity against antibiotic-resistant Mycobacterium tuberculosis R46 at 50 ug/ml disc level. Format: functional, organism-based.
Test [2] deals with Mycobacterium tuberculosis. Nature of the test: Antimicrobial activity against antibiotic-resistant Mycobacterium tuberculosis MTB72 at 50 ug/ml disc level. Format: functional, organism-based.

Take `COCc1c(C(C)O)cc(O)c(C)c1OC` (configuration not stated): the result in test [1] and in test [2] was inactive.
